Assays:
[1] = system: 12 mouse syngeneic tumor models; test: Antitumor activity of lenvatinib on mouse syngeneic tumor models (ΔT/C); type: in vivo; settings: 10 mg/kg once daily oral; ΔT/C on day 15; BNL, Renca and B16-F10 vs other nine models; p<0.05, t-test; FIG. 3c
Experimental: The twelve mouse cell lines shown in Table 1 were subcutaneously inoculated into the right lateral side of 7-week-old immune competent mice. Mice were randomly grouped when the tumor size reached approximately 100 mm^3. Lenvatinib (10 mg/kg once daily) was orally administered for mice of lenvatinib treatment group. The day on which treatment was started was designated as day 1. The values of antitumor activity (ΔT/C) were calculated as ΔT/ΔC×100 where ΔT and ΔC are changes in the mean tumor volumes for drug treated and untreated control groups, respectively. When the tumor volumes decreased from the initial tumor volumes, ΔT/C values were calculated as (Tt−T1)/T1×100, where Tt and T1 are the mean tumor volumes of drug treated group on day t after the start of treatment and day 1, respectively. ΔT/C on day 15 was used for the analysis.

[2] = system: PLC/PRF/5 xenograft HCC model and two HCC patient-derived xenograft models; settings: cited from earlier work
[3] = system: 12 mouse syngeneic tumor models; test: Changes in MVD gene score of 12 mouse syngeneic tumor models with or without angiogenesis inhibitor treatment (RNA-seq); type: in vivo; settings: tumors collected on day 8, p<0.05, t-test, FIG. 7; for Gene score compared with non-treatment group: lenvatinib 10 mg/kg once daily oral, aflibercept 5 mg/kg twice a week i.p.
Experimental: Twelve mouse cell lines were cultured with appropriate medium (Table 1). Cells were harvested and suspended with Hanks' Balanced Salt Solution (HBSS) and subcutaneously inoculated into right lateral side of 7-week old immune competent mice. Tumor size was measured by an electronic digital caliper (Digimatic Caliper, Mitsutoyo Corporation) and calculated with a formula; (short diameter (mm))^2×(long diameter (mm))/2. Tumors around 100 mm^3 were resected and soaked with RNA later. mRNA extracted from tumor samples were followed by RNA-seq using Illumina NovaSeq™ (GENEWIZ) to quantify expression levels of mRNA. Sequenced reads were subjected to quality assessment by FastQC (version 0.11.5). Illumina adaptor sequences and low quality bases were trimmed by using Trimmomatic (version 0.36). Filtered reads were mapped to the mouse genome (GRCm38/mm10 and Ensembl 88) by using STAR (v2.5.2b). Gene expression levels in transcripts per million (TPM) for all samples were estimated by using RSEM (v1.2.31). Using the same tumor samples, CD31 was stained with anti-CD31 antibody (Clone SZ31, dianova) to detect endothelial cells in IHC analysis. Microvessel density (MVDCD31) score was calculated by dividing the number of CD31 positive blood vessels by tumor area using HALO (Indica Lab).
We developed a gene score by the following steps. First, we extracted 1086 genes that were highly expressed in an endothelial cell population using scRNA-seq data of the Hepa 1-6 mouse HCC model. Next, we extracted genes with TOP20 Pearson's correlation coefficient between its logarithm-transformed expression values (log2 (TPM+1)) and MVD (IHCCD31) using 12 syngeneic tumor models that were measured by RNA-seq and IHC, respectively. Of these 20 genes, we selected seven genes that had known association with vasculature from literature search and added 3 well-known endothelial cell markers to the gene list (Table 2). We further selected genes whose expression were specific to endothelial cell cluster by manually checking t-SNE plots of scRNA-seq data of Hepa 1-6 HCC model. Finally, six genes were chosen as mouse MVD gene set. The gene score of sample i was calculated as follows: […]
The twelve mouse cell lines shown in Table 1 were subcutaneously inoculated into right lateral side of 7-week-old immune competent mice. Mice were randomly grouped into non-treatment and lenvatinib treatment groups when the tumor size reached approximately 100 mm^3 (n=3 for each group). Lenvatinib (10 mg/kg once daily) was orally administered for mice of lenvatinib treatment group and aflibercept (5 mg/kg twice a week) was administered intraperitoneally for mice of aflibercept treatment group for a week. The day on which treatment was started was designated as day 1. […]

Compound	antitumor activity (ΔT/C) in lenvatinib sensitive models compared to other nine tumor models [1]	tumor microvessel density [2]	Gene score compared with non-treatment group [3]	number of tumor models (of 12) in which gene score was decreased vs non-treatment group [3]
COc1cc2nccc(Oc3ccc(NC(=O)NC4CC4)c(Cl)c3)c2cc1C(N)=O [lenvatinib, 4-(3-chloro-4-(cyclopropylaminocarbonyl)aminophenoxy)-7-methoxy-6-quinolinecarb oxamide]	more antitumor activity	reduced tumor microvessel density	decreased	10 tumor models
aflibercept: inhibitor of VEGF which binds to circulating VEGF and acts as VEGF-trap, leading to inhibiting tumor angiogenesis			significantly decreased	eight

— patent publication US20240271223A1, “BIOMARKERS FOR A THERAPY COMPRISING AN ANGIOGENESIS INHIBITOR” (Eisai R&D Management Co., Ltd., priority 2021, published 2024)
